Measured values taken from patent publication US20230142647A1, “METHOD OF TREATING CANCER OR A BLOOD DISORDER” (priority 2021, published 2023).
Where two headings read alike, the source gives them in different places.

Tests used:
[1] = tested on: human NPM1/FLT3-mutated AML cells; assay: single agent survival experiment in PDX model with NPM1/FLT3 mutations (Example 2); format: in vivo, mice; conditions: 3x/wk from day 24; for survival benefit compared to vehicle (in words): Valtrate 10 mg/kg, CAPE 50 mg/kg, selinexor 7 mg/kg by oral gavage
Protocol: FIG. 4A. Experiment plan diagram. […] THU inhibits cytidine deaminase(CDA) to prolong 5-AC half-life. Treatment was initiated at day 24 and then repeated three times a week. Mice were humanly euthanized after becoming moribund or losing 15% of their initial weight in accordance with institutional guidelines. (FIG. 4B) Survival presented as Kaplan-Meier survival analysis graph from inoculation time to distress. P values and log-rank test are calculated and plotted. […] Mean±SD.
Immunodeficient NSG mice are xenotransplanted with human NPM1/FLT3-mutated AML cells.
On day 24 mice were assigned for treatment groups (n=5 per group). The treatment groups are 1) Vehicle, 2) Valtrate 10 mg/kg by oral gavage, 3) CAPE 50 mg/kg by oral gavage, 4) selinexor 7 mg/kg by oral gavage, 5) 5-AC2 mg/kg subcutaneously, and 6) 5-AC(2 mg/kg) subcutaneously+THU (20 mg/kg) intraperitoneally. The addition of THU extends 5-AC half-life, by inhibiting the enzyme cytidine deaminase(CDA), which degrades 5-AC. Treatment started on day 24, 3×/wk. (FIG. 4A). […] Groups are compared with vehicle and with each other. To monitor progress periodic blood counts are analyzed along with distress signs.

AML (NPM1-FLT3 and MLL) = format: in vivo
[2] = tested on: AML with NPM1/FLT3 mutations cells; assay: survival study of combinations in high tumor load PDX model of NPM1/FLT3 mutations (Example 4); format: in vivo, mice; conditions: at distress point or day 200
From the text: FIG. 9A Treatment groups illustration: Primary acute myelogenous leukemia (AML) patient cells with Nucleophosmin 1 and fins-like tyrosine kinase-3 mutations (NPM1/FLT3) were xenotranplanted into immunodeficient Nod-SCID-IL-2Rgamma-null mice (NSG, Jackson Laboratory) by injecting 1×10^6 cells IV (n=5 per group) at day 0 (D0). Engraftment D28≥45% bone engraftment was confirmed in 3 randomly selected mice. At D28 mice were divided in to five treatment groups (n=5 per group), 1) Vehicle, 2) 5-AC(2 mg/kg)/THU(20 mg/kg), 3) 5-AC(2 mg/kg)/THU(20 mg/kg)/selinexor (5 mg/kg), 4) 5-AC(2 mg/kg)/THU(20 mg/kg)/CAPE (50 mg/kg) and 5) 5-AC(2 mg/kg)/THU(20 mg/kg)/Valtrate(10 mg/kg). […]
Peripheral blood analysis of WBCs, hemoglobin Hb, and platelets count. peripheral blood obtained by tail vein phlebotomy and serial blood counted on day 0, 45, 100, 140 and 200. And analyzed by HemaVet blood lab. […]
An image analysis to evaluate tumor burden of the spleens, was by histologic identification of relatively large infiltrating AML cells, replacing normal splenic structure by H&E staining of spleen sections. Image analysis of cell counts were plotted and quantified. […]
Furthermore, efficacy vs toxicity is best assessed by serial peripheral blood analysis of WBCs, hemoglobin Hb, and platelets. […] Blood samples were analyzed by HemaVet blood lab. […]

HL-60 cell line = assay: AML HL-60 cell line cell counts and morphologic differentiation; format: cell-based; conditions: Valtrate 6 μM, CAPE 4 μM, 5-AC 2.5 μM, selinexor 20 nM, day 5
Protocol: Cell counts obtained using automated counter, Mean±SD (3 experiments) cell morphology obtained from the same cell culture. P<0.01 significant, t test (2 sided). The small molecule agents were used in dosages: Valtrate (6 μM), CAPE (4 μM), 5-AC (2.5 μM), selinexor (20 nM) and in the combinations relative to vehicle. cell counts (day 0-5) and morphology (day 5). (FIG. 3A) Valtrate, 5-AC, and Valtrate+5-AC cell count and morphologic changes relative to vehicle and individual agents. (FIG. 3B) CAPE, 5-AC, and CAPE+5-AC cell counts day 0-5 and morphologic changes on day 5 relative to vehicle and individual agents. (FIG. 3C) Combinational groups of 5-AC+valtrate, 5-AC+CAPE, and 5-AC+selinexor morphologic development (day 5) are compared.
The low dosages were purposed for use in combination with low dose 5-AC, Such as to position AML cells in a state of hypomethylated accessible chromatin with increased nuclear transcription factors. cell counts and morphologic alterations were observed. Dosages for this purpose were: Valtrate (6 μM), CAPE (4 μM), 5-AC (2.5 μM), and for comparing with Selinexor (20 nM) the same dosages were used for combinations.

Compound: Valtrate
- survival benefit compared to vehicle (in words) [1]: minimal
- synergy in combination with 5-AC (AML (NPM1-FLT3 and MLL); mouse, in vivo): effective synergetic action

Compound: O=C1NC(O)CCN1[C@@H]1O[C@H](CO)[C@@H](O)[C@H]1O (stereo partly shown) [THU, Tetrahydrouridine]
- femoral and tibial bone appearance (white = leukemia replacement, red/dark = functional hematopoiesis) [2]: White pale bones

Compound: O=C(/C=C\n1cnc(-c2cc(C(F)(F)F)cc(C(F)(F)F)c2)n1)NNc1cnccn1 [selinexor]
- spindle shaped cells (terminal fate morphology) (HL-60 cell line): not observed
- survival benefit compared to vehicle (in words) [1]: minimal

Compound: Nc1ncn([C@@H]2O[C@H](CO)[C@@H](O)[C@H]2O)c(=O)n1 [5-AC, 5-Azacytidine]
- survival benefit ([1]; 5-AC 2 mg/kg subcutaneously, THU 20 mg/kg intraperitoneally): more than 25 days
- femoral and tibial bone appearance (white = leukemia replacement, red/dark = functional hematopoiesis) [2]: White pale bones

Compound: O=C(/C=C/c1ccc(O)c(O)c1)OCCc1ccccc1 [CAPE, Caffeic Acid Phenethyl Ester]
- spindle shaped cells (terminal fate morphology) (HL-60 cell line): not observed
- survival benefit compared to vehicle (in words) [1]: minimal
- synergy in combination with 5-AC (AML (NPM1-FLT3 and MLL); oral Valtrate 10 mg/kg 3x/wk or CAPE 50 mg/kg 3x/wk, in combination with 5-AC): effective synergetic action
